Assay results as given in patent US8394969B2, “Cyclic benzimidazole derivatives useful as anti-diabetic agents” (Merck Sharp & Dohme Corp., priority 2008, dated 2013).
pEC50: −log10 of the molar value. Structures can show the parent of a compound that is named as a salt.

Target: recombinant human AMPK complex 1 (containing α1β1γ1) (Homo sapiens, UniProt Q13131+Q9Y478)
Assay: […] (in vitro AMPK activation assay)
Assay type: biochemical
Details: recombinant human AMPK complex 1 (α1β1γ1); for Emax: basal activity subtracted, read-out: % Maximum AMP Activation of human AMPK Complex 1; for pEC50: read-out: EC50

Sequence of recombinant human AMPK complex 1 (containing α1β1γ1) (Q13131 whole entry): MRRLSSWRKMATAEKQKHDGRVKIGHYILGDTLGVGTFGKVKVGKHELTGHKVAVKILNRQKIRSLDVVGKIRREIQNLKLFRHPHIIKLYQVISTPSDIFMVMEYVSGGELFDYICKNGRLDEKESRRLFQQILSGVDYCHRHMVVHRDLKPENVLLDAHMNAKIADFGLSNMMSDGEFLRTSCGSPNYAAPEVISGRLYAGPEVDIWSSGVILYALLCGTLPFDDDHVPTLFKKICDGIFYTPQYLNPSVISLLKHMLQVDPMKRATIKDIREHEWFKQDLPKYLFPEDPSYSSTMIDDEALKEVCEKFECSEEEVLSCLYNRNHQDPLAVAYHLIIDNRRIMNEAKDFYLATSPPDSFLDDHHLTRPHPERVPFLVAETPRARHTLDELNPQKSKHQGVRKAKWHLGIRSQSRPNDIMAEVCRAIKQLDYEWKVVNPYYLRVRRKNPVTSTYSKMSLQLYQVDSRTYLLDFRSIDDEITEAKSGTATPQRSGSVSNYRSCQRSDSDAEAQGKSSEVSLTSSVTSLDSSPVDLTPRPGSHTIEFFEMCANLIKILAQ
Sequence of recombinant human AMPK complex 1 (containing α1β1γ1) (Q9Y478 whole entry): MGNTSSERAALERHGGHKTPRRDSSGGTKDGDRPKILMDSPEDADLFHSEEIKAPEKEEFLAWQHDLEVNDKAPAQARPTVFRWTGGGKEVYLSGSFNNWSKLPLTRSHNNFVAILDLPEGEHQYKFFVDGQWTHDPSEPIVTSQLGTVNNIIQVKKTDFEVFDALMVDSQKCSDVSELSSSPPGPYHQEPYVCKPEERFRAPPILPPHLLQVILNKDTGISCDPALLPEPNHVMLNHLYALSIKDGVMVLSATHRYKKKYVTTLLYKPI
Sequence of recombinant human AMPK complex 1 (containing α1β1γ1) (P54619 whole entry partner): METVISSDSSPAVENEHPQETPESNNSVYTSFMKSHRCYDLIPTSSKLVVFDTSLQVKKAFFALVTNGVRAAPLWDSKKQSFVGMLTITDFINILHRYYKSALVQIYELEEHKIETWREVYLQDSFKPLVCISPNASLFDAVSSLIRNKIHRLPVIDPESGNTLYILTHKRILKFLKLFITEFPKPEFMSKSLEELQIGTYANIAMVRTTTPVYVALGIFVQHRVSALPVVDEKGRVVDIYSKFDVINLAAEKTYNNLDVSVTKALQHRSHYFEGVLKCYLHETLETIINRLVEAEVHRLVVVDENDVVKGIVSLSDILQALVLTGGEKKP

| SMILES | Emax | pEC50 |
| --- | --- | --- |
| Cc1ccc(Oc2nc3cc(C#Cc4ccc(-c5ncc[nH]5)cc4)c(Cl)cc3[nH]2)cc1C(=O)O [Example 73, 5-{6-Chloro-5-[4-(1H-imidazol-2-yl)-phenylethynyl]1H-benzoimidazol-2-yloxy}-2-methyl-benzoic acid] | > 80% | – |
| Cc1cc(Oc2nc3cc(-c4ccc(-c5ccccc5)cc4)c(Cl)cc3[nH]2)cc(O)c1C(=O)O [Example 27, 4-(5-Biphenyl-4-yl-6-chloro-1H-benzoimidazol-2-yloxy)-2-hydroxy-6-mehtyl-benzoic acid] | > 80% | – |
| Cc1ccc(Oc2nc3cc(C#Cc4cccc(Cl)c4)c(Cl)cc3[nH]2)cc1C(=O)O [Example 110, 5-[6-Chloro-5-(3-chloro-phenylethynyl)-1H-benzoimidazol-2-yloxy]-2-methyl-benzoic acid] | > 80% | – |
| Cc1ccc(Oc2nc3cc(-c4ccc(N5CCCC5=O)cc4)c(Cl)cc3[nH]2)cc1C(=O)O [Example 350, 2-(3-carboxy-4-methylphenoxy)-6-chloro-5-[4-(2-oxopyrrolidin-1-yl)phenyl]-1H-3,1-benzimidazol-3-ium trifluoroacetate] | > 80% | – |
| Cc1ccc(Oc2nc3cc(-c4ccc5ccnc(O)c5c4)c(Cl)cc3[nH]2)cc1C(=O)O [Example 238, 5-[6-Chloro-5-(1-hydroxy-isoquinolin-7-yl)-1H-benzoimidazol-2-yloxy]-2-methyl-benzoic acid] | > 80% | – |
| Cc1ccc(Oc2nc3cc(C#Cc4ccc(-c5cn[nH]c5)cc4)c(Cl)cc3[nH]2)cc1C(=O)O [Example 82, 5-{6-Chloro-5-[4-(1H-pyrazol-4-yl)-phenylethynyl]-1H-benzoimidazol-2-yloxy}-2-methyl-benzoic acid] | > 80% | – |
| O=C(O)c1cc(Oc2nc3cc(-c4ccccc4)c(Cl)cc3[nH]2)ccc1Cl [Example 61, 2-Chloro-5-(6-chloro-5-phenyl-1H-benzoimidazol-2-yloxy)-benzoic acid] | > 80% | – |
| O=C(O)c1cc(Oc2nc3cc(-c4ccc(CO)cc4)c(Cl)cc3[nH]2)ccc1Cl [Example 60, 2-Chloro-5-[6-chloro-5-(4-hydroxymethyl-phenyl)-1H-benzoimidazol-2-yloxy]-benzoic acid] | > 80% | – |
| COc1cccc(C#Cc2cc3nc(Oc4ccc(C)c(C(=O)O)c4)[nH]c3cc2Cl)c1 [Example 108, 5-[6-Chloro-5-(3-methoxy-phenylethynyl)-1H-benzoimidazol-2-yloxy]-2-methyl-benzoic acid] | > 80% | – |
| Cc1ccc(Oc2nc3cc(-c4ccc(C(=O)N(C)C)cc4)c(Cl)cc3[nH]2)cc1C(=O)O [Example 241, 5-[6-Chloro-5-(4-dimethylcarbamoyl-phenyl)-1H-benzoimidazol-2-yloxy]-2-methyl-benzoic acid] | > 80% | – |
| Cc1ccc(Oc2nc3cc(-c4ccc(-c5cccc(F)c5)cc4)c(Cl)cc3[nH]2)cc1C(=O)O [Example 185, 5-{[6-chloro-5-(3′-fluorobiphenyl-4-yl)-1H-benzimidazol-2-yl]oxy}-2-methylbenzoic acid] | > 80% | – |
| COc1ccc(-c2ccc(-c3cc4nc(Oc5cc(C)c(C)c(C(=O)O)c5)[nH]c4cc3Cl)cc2)cn1 [Example 315, 5-{6-Chloro-5-[4-(6-methoxy-pyridin-3-yl)-phenyl]-1H-benzoimidazol-2-yloxy}-2,3-dimethyl-benzoic acid] | > 80% | – |
| Cc1ccc(Oc2nc3cc(C#CC4CCNC4)c(Cl)cc3[nH]2)cc1C(=O)O (stereo not drawn) [Example 138, 5-(6-Chloro-5-pyrrolidin-3-ylethynyl-1H-benzoimidazol-2-yloxy)-2-methyl-benzoic acid] | > 80% | – |
| N#Cc1cccc(Oc2nc3cc(-c4ccc(-c5ccccc5)cc4)c(Cl)cc3[nH]2)c1 [Example 42, 3-(5-Biphenyl-4-yl-6-chloro-1H-benzoimidazol-2-yloxy)-benzonitrile] | > 80% | – |
| Cc1ccc(Oc2nc3cc(C#Cc4ccc(=O)[nH]c4)c(Cl)cc3[nH]2)cc1C(=O)O [Example 128, 5-[6-Chloro-5-(6-oxo-1,6-dihydro-pyridin-3-ylethynyl)-1H-benzoimidazol-2-yloxy]-2-methyl-benzoic acid] | > 80% | – |
| COC(=O)c1cc(Oc2nc3cc(C#Cc4ccc(OC)cc4)c(Cl)cc3[nH]2)ccc1C [Example 122, 5-[6-Chloro-5-(4-methoxy-phenylethynyl)-1H-benzoimidazol-2-yloxy]-2-methyl-benzoic acid methyl ester] | > 80% | – |
| O=C(O)c1cc(Oc2nc3cc(-c4ccc(-c5ccccc5O)cc4)c(Cl)cc3[nH]2)cc(C(=O)O)c1 [Example 54, 5-[6-Chloro-5-(2′-hydroxy-biphenyl-4-yl)-1H-benzoimidazol-2-yloxy]-isophthalic acid] | > 80% | – |
| O=C(O)c1ccc(Cl)c(Oc2nc3cc(-c4ccc(-c5ccccc5)cc4)c(Cl)cc3[nH]2)c1 [Example 210, 3-(5-Biphenyl-4-yl-6-chloro-1H-benzoimidazol-2-yloxy)-4-chloro-benzoic acid] | > 80% | – |
| Cc1ccc(Oc2nc3cc(-c4cnc5c(ccn5C)c4)c(Cl)cc3[nH]2)cc1C(=O)O [Example 144, 2-(3-carboxy-4-methylphenoxy)-6-chloro-5-(1-methyl-1H-pyrrolo[2,3-b]pyridin-5-yl)-1H-3,1-benzimidazol-3-ium chloride] | > 80% | – |
| Cc1ccc(Oc2nc3cc(-c4ccc5c(C)c[nH]c5c4)c(Cl)cc3[nH]2)cc1C(=O)O [Example 291, 5-[6-Chloro-5-(3-methyl-1H-indol-6-yl)-1H-benzoimidazol-2-yloxy]-2-methyl-benzoic acid] | > 80% | – |
| Cc1ccc(Oc2nc3cc(-c4cnn(CC(C)C)c4)c(Cl)cc3[nH]2)cc1C(=O)O [Example 159, 5-[6-Chloro-5-(1-isobutyl-1H-pyrazol-4-yl)-1H-benzoimidazol-2-yloxy]-2-methyl-benzoic acid] | > 80% | – |
| Cc1ccc(Oc2nc3cc(-c4ccc5c(c4)cc(C)n5C)c(Cl)cc3[nH]2)cc1C(=O)O [Example 289, 5-[6-Chloro-5-(1,2-dimethyl-1H-indol-5-yl)-1H-benzoimidazol-2-yloxy]-2-methyl-benzoic acid] | > 80% | – |
| Cc1ccc(Oc2nc3cc(-c4ccc(-c5ccncc5)cc4)c(Cl)cc3[nH]2)cc1C(=O)O [Example 168] | – | 8.30 |
| Cc1ccc(Oc2nc3cc(C#Cc4ccccc4F)c(Cl)cc3[nH]2)cc1C(=O)O [Example 67, 5({6-chloro-5-[(2-fluorophenyl)ethynyl]-1H-benzimidazol-2-yl}oxy)-2-methylbenzoic acid] | – | 8.52 |
| Cc1ccc(Oc2nc3cc(C#Cc4ccc(CN)cc4)c(Cl)cc3[nH]2)cc1C(=O)O [Example 72, 5-[5-(4-Aminomethyl-phenylethynyl)-6-chloro-1H-benzimidazol-2-yloxy]-2-methyl-benzoic acid] | > 80% | – |
| Cc1ccc(Oc2nc3cc(C#Cc4cccnc4)c(Cl)cc3[nH]2)cc1C(=O)O [Example 131, 5-(6-Chloro-5-pyridin-3-ylethynyl-1H-benzoimidazol-2-yloxy)-2-methyl-benzoic acid] | > 80% | – |
| COC(=O)Cn1nnc(-c2cccc(Oc3nc4cc(-c5ccc(-c6ccccc6)cc5)c(Cl)cc4[nH]3)c2)n1 [Example 41, {5-[3-(5-Biphenyl-4-yl-6-chloro-1H-benzoimidazol-2-yloxy)-phenyl]-tetrazol-2-yl}-acetic acid methyl ester] | > 80% | – |
